Key:
EcR = target: T1, EcR (Drosophila melanogaster, UniProt P34021); assay: luciferase reporter assay in S2 culture cells with or without EcI RNAi; format: cell-based, D. melanogaster; conditions: for effect of EcI RNAi treatment on the cells' response as measured by the luciferase assay: S2 culture cells, varying concentrations, 24 hours, EcI RNAi vs control cells without RNAi
T1 construct: endogenous in cells; host or cells: Drosophila S2 culture cells
T1 sequence (P34021 1-878): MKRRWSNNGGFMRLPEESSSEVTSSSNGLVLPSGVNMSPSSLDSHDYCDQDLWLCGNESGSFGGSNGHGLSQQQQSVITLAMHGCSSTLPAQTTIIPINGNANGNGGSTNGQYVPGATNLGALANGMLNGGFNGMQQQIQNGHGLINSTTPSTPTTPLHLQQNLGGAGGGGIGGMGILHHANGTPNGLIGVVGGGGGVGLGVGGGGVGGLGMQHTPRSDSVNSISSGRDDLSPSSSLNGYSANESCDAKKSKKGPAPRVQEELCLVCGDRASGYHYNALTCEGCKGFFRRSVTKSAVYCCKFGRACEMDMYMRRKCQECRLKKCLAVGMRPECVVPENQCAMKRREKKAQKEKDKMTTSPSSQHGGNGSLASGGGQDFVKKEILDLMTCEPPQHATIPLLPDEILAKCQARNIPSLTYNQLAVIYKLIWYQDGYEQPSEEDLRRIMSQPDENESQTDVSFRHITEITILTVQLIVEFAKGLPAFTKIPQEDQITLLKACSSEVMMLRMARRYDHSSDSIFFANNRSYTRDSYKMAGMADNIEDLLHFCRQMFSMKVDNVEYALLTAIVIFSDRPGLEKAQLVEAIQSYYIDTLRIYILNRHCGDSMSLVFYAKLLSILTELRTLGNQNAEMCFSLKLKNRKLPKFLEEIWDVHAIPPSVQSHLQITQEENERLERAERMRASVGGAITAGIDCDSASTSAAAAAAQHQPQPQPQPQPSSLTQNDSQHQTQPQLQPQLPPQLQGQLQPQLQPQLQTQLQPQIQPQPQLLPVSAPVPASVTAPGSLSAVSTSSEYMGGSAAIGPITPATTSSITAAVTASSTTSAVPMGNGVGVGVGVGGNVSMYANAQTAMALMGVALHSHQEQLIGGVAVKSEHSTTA
T1 sequence (P20153 1-508 partner): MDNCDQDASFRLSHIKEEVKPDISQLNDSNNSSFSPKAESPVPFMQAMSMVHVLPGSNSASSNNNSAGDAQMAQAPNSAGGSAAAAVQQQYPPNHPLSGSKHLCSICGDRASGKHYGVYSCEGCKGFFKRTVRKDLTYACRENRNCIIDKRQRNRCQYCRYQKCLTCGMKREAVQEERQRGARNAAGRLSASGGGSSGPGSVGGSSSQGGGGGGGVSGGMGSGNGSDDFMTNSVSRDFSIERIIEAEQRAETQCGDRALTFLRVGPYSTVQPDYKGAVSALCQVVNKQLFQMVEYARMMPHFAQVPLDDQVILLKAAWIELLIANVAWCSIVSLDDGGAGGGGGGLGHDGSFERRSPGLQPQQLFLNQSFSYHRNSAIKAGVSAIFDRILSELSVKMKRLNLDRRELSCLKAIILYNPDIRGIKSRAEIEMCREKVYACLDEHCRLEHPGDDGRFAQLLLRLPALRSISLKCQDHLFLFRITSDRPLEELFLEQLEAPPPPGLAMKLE
Procedure: FIG. 3 is a graph of the fold change of D. melanogaster EcR response after incubation of S2 culture cells for 24 hours in varying concentrations of 20E (left graph) or chromafenozide (CF; middle graph), as measured by luciferase reporter assay. The right graph is a time-course analysis of EcR-mediated luciferase activity in S2 culture cells treated with 10^−7M of 20E. In each graph, the control data is the solid top line, and the dashed bottom line is data of cells treated with EcI RNAi. Each point represents mean±SD; * indicates p<0.05 from Student's t-test compared to control; ** indicates p<0.01 from Student's t-test compared to control.
FIG. 5A depicts a schematic of a luciferase reporter assay in a cell derived from an arthropod cell line, for determining transport of 20E by the membrane steroid hormone transporter encoded by ecdysone importer (EcI).
As described above, in some embodiments, the transcriptional activity of a steroid hormone nuclear receptor is used to evaluate the transport of a steroid hormone across the cell membrane of an initial cell, or a comparative cell. In some variations, the luciferase reporter assay is used to measure the transcriptional activity of the steroid hormone nuclear receptor. For example, with reference to FIG. 5A and FIG. 5B, depicted are schemes showing the use of a luciferase reporter assay in an S2 cell (FIG. 5A) or in a HEK cell (FIG. 5B) to evaluate the transcriptional activity of the nuclear receptor encoded by the gene ecdysone receptor (EcR).
S2 culture cells treated with EcI RNAi were incubated with varying concentrations of 20E or with chromafenozide (CF) for 24 hours, and their response was monitored using a luciferase reporter assay. The relative response of the treated cells was compared to control cells, which were incubated with 20E or CF but not treated with RNAi. […] CF is a non-steroidal EcR agonist, and is expected to enter the cells through an unknown transporter distinct from EcI.

EcI and EcR = target: T2, EcI and EcR (Drosophila melanogaster, UniProt P34021); assay: luciferase reporter assay in HEK culture cells transfected with EcR or with EcI and EcR; format: cell-based, D. melanogaster; conditions: varying concentrations, 24 hours
T2 construct: expressed in transfected cells; host or cells: human HEK cells
T2 sequence (P34021 1-878): T1 sequence (P34021 1-878)
Procedure: FIG. 4 is a relative luciferase reporter activity in HEK culture cells treated for 24 h with 20E. Response of the cells transfected with EcR is the solid bottom line; cells transfected with EcR and EcI is the dashed top line. Each point represents mean±SEM; ** indicates p<0.01 from Student's t-test compared to control.
FIG. 5B depicts a schematic of a luciferase reporter assay in a cell derived from a mammalian cell line, for determining transport of 20E by the membrane steroid hormone transporter encoded by ecdysone importer (EcI).
As described above, in some embodiments, the transcriptional activity of a steroid hormone nuclear receptor is used to evaluate the transport of a steroid hormone across the cell membrane of an initial cell, or a comparative cell. In some variations, the luciferase reporter assay is used to measure the transcriptional activity of the steroid hormone nuclear receptor. […]
Human HEK cells were transfected with EcI and EcR, and their response to incubation with varying concentrations of 20E for 24 hours was evaluated using the luciferase reporter assay. Control HEK cells that were transfected only with EcR were also evaluated.

effect of EcI RNAi treatment on the cells' response over time (time-course of luciferase activity) (EcR; S2 cells treated with 10^−7 M, with or without RNAi)	response as measured by luciferase assay (EcI and EcR; control human HEK cells transfected only with EcR)	response as measured by luciferase assay (EcI and EcR; human HEK cells transfected with both EcI and EcR)	SMILES	effect of EcI RNAi treatment on the cells' response as measured by the luciferase assay (EcR)
significantly decreased	not responsive	responsive	CC(C)(O)CC[C@@H](O)[C@](C)(O)[C@H]1CC[C@@]2(O)C3=CC(=O)[C@@H]4C[C@@H](O)[C@@H](O)C[C@]4(C)[C@H]3CC[C@]12C [20E, 20-hydroxyecdysone]	significantly decreased
–	–	–	Cc1cc(C)cc(C(=O)N(NC(=O)c2ccc3c(c2C)CCCO3)C(C)(C)C)c1 [CF, chromafenozide]	less effect
